Results from patent publication US20240398813A1, “PHARMACEUTICAL COMPOSITION FOR PREVENTING OR TREATING OVERACTIVE BLADDER” (GWANGJU INSTITUTE OF SCIENCE AND TECHNOLOGY, priority 2021, published 2024).
Several values for one entry are separate records, joined by “and”; a condition that tells them apart may be missing. Equal values may be shown once.

What was measured:
[1] = molecular target: T1, hyperactive mutant BKCa channels (hSlo G803D/N806K) stably expressed in AD 293 cells (Homo sapiens, UniProt Q12791, G856D/N859K); experiment: Cell-based fluorescence assay (FluxOR Potassium Ion Channel Assay) of BKCa channel activation; parameters: key to Channel activity increase for 80 s (ΔRFU) at 6 μM: ratio of ΔRFU (RFU at 100 s − 20 s) to the same ΔRFU for vehicle; conditions: for Initial velocity of channel activation for 4 s (vi) at 6 μM: first 4 s after channel stimulation; for Channel activity increase for 80 s (ΔRFU) at 6 μM: normalized by vehicle; for EC50: fit of dose-response curve of initial rates, read-out: Apparent EC50 based on vi; for activation effect on the BKCa channels at a single concentration: 3 μM
T1 construct: expressed in transfected cells
T1 sequence (Q12791 whole entry G856D/N859K): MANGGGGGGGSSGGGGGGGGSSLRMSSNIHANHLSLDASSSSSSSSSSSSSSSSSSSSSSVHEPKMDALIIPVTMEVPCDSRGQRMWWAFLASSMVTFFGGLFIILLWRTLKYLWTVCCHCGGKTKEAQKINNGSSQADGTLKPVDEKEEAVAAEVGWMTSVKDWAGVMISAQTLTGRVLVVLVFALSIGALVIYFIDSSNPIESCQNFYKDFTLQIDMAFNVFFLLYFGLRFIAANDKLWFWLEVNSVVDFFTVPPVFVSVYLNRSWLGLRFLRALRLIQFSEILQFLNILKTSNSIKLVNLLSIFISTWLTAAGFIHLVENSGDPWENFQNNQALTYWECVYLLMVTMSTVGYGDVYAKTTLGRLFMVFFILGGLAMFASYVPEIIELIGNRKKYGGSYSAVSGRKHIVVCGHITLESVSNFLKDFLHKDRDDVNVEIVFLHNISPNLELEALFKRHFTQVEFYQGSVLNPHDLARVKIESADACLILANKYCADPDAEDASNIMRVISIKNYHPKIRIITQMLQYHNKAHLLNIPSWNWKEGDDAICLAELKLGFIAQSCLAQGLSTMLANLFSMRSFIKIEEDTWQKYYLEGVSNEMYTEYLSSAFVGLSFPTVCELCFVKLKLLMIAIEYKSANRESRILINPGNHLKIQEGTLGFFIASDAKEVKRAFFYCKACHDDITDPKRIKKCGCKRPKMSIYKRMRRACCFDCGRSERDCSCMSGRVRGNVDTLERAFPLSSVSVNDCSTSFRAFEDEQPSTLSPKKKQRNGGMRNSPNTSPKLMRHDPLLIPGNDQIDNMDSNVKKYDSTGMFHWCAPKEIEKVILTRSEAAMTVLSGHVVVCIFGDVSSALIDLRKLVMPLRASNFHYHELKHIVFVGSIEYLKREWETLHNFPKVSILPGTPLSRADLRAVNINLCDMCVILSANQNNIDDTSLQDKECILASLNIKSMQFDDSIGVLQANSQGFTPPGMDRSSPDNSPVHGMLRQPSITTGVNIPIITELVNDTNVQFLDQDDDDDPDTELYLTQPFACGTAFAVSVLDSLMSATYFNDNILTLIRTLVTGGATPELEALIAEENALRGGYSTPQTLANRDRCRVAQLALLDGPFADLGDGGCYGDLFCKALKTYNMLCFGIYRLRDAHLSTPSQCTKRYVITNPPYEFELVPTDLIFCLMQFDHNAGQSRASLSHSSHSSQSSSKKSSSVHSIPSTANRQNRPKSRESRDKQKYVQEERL
Method: AD 293 cells, which are derivatives of the commonly used HEK 293 cell line and stably express hyperactive mutant BKCa channels (hSlo G803D/N806K) to sensitively detect the effect (Lee et al., 2013), were cultured in Dulbecco' modified Eagle medium (Hyclone, Logan, Utah, […]) supplemented with 10% fetal bovine serum, and selected with 1 mg/mL Geneticin (Gibco, Amarillo, TX, USA). 20,000 cells per well were seeded on a 96-well clear-bottom black plate (Corning, New York, NY, USA) coated with poly-D-lysine (Gibco). BKCa channel activity was measured using the cell-based fluorescence assay, FluxOR Potassium Ion Channel Assay (Thermo Fisher Scientific, Waltham, MA, USA). Experimental procedures were performed according to the manufacturer's instructions. The cells were treated with test compounds dissolved in assay buffer for 15 minutes. Fluorescence was measured using a FlexStation3 multimode microplate reader (Molecular Devices, Silicon Valley, CA, USA) and SoftMax Pro (Molecular Devices). Excitation and emission wavelengths were set to 485 nm and 528 nm, respectively. Fluorescence signals were acquired every 2 seconds for 120 seconds and normalized by the relative fluorescence unit (RFU). The efficacy of a channel activator was determined by analyzing changes (ΔRFU) in the RFU for 80 seconds after channel stimulation.
Activation effects of the synthesized compounds on BKCa channels were evaluated using cell-based fluorescence assay. NS11021 was used as the positive control. The effects were determined based on the initial rate (vi) of channel activation and the apparent EC50 value obtained from fitting data of the dose-response curve. Here, Vi means change values for 4 seconds at the start of channel opening (vi={RFU(t=24 s)−RFU(t=20 s)}/4 s). […]

[2] = molecular target: T1, hyperactive mutant BKCa channels (hSlo G803D/N806K) stably expressed in AD 293 cells; experiment: as above; conditions: compounds at 5 μM; n=3; vehicle 0.26

Initial velocity of channel activation for 4 s (vi) at 6 μM [1] [s⁻¹] | Channel activity increase for 80 s (ΔRFU) at 6 μM [1] | EC50 [1] | BKCa activity [1] | activation effect on the BKCa channels at a single concentration [1] | Activity (ΔRFU normalized by activities of LDD175) [2] | SMILES
0.38 | 1.38 | 12.7 µM |  |  |  | O=C(O)c1sc(=S)n2c1[nH]c(=O)c1ccccc12 [Compound 3, 5-oxo-1-thioxo-4,5-dihydro-1H-thiazolo[3,4-a]quinazoline-3-carboxylic acid]
0.32 | 0.96 |  |  |  |  | NC(=O)c1sc(=S)n2c1[nH]c(=O)c1ccccc12 [Compound 4, 5-oxo-1-thioxo-4,5-dihydro-1H-thiazolo[3,4-a]quinazoline-3-carboxamide]
0.26 | 1.10 |  |  |  |  | O=C(NCc1ccccc1)c1sc(=S)n2c1[nH]c(=O)c1ccccc12 [Compound 5, N-benzyl-5-oxo-1-thioxo-4,5-dihydro-1H-thiazolo[3,4-a]quinazoline-3-carboxamide]
0.42 | 1.03 |  |  |  |  | O=C(Nc1ccccc1)c1sc(=S)n2c1[nH]c(=O)c1ccccc12 [Compound 101, 5-oxo-N-phenyl-1-thioxo-4,5-dihydro-1H-thiazolo[3,4-a]quinazoline-3-carboxamide]
0.23 | 1.06 |  |  |  |  | Cc1ccc2c(=O)[nH]c3c(C(=O)Nc4ccccc4)sc(=S)n3c2c1 [Compound 102, 8-methyl-5-oxo-N-phenyl-1-thioxo-4,5-dihydro-1H-thiazolo[3,4-a]quinazoline-3-carboxamide]
 | 1.56 |  |  |  |  | O=C(Nc1ccccc1)c1sc(=S)n2c1[nH]c(=O)c1ccc(Cl)cc12 [Compound 103, 8-chloro-5-oxo-N-phenyl-1-thioxo-4,5-dihydro-1H-thiazolo[3,4-a]quinazoline-3-carboxamide]
 | 1.25 |  |  |  |  | O=C(Nc1ccccc1)c1sc(=S)n2c1[nH]c(=O)c1ccc(Br)cc12 [Compound 104, 8-bromo-5-oxo-N-phenyl-1-thioxo-4,5-dihydro-1H-thiazolo[3,4-a]quinazoline-3-carboxamide]
0.32 | 1.16 |  |  |  |  | Cc1ccc2c(c1)c(=O)[nH]c1c(C(=O)Nc3ccccc3)sc(=S)n12 [Compound 105, 7-methyl-5-oxo-N-phenyl-1-thioxo-4,5-dihydro-1H-thiazolo[3,4-a]quinazoline-3-carboxamide]
0.38 | 1.18 |  |  |  |  | O=C(Nc1ccccc1)c1sc(=S)n2c1[nH]c(=O)c1cc(Cl)ccc12 [Compound 106, 7-chloro-5-oxo-N-phenyl-1-thioxo-4,5-dihydro-1H-thiazolo[3,4-a]quinazoline-3-carboxamide]
5.51 | 3.83 | 12.3 µM |  |  |  | O=C(Nc1ccccc1)c1sc(=S)n2c1[nH]c(=O)c1cc(Br)ccc12 [Compound 107, 7-bromo-5-oxo-N-phenyl-1-thioxo-4,5-dihydro-1H-thiazolo[3,4-a]quinazoline-3-carboxamide]

More lines, now with the values behind:

SMILES | Initial velocity of channel activation for 4 s (vi) at 6 μM [1] [s⁻¹] | Channel activity increase for 80 s (ΔRFU) at 6 μM [1] | EC50 [1] | BKCa activity [1] | activation effect on the BKCa channels at a single concentration [1] | Activity (ΔRFU normalized by activities of LDD175) [2]
Cc1ccccc1NC(=O)c1sc(=S)n2c1[nH]c(=O)c1cc(Br)ccc12 [Compound 201, 7-bromo-5-oxo-1-thioxo-N-(o-tolyl)-4,5-dihydro-1H-thiazolo[3,4-a]quinazoline-3-carboxamide] | 9.40 | 3.68 | 4.6 µM |  |  | 
Cc1ccc(NC(=O)c2sc(=S)n3c2[nH]c(=O)c2cc(Br)ccc23)cc1 [Compound 203, 7-bromo-5-oxo-1-thioxo-N-(p-tolyl)-4,5-dihydro-1H-thiazolo[3,4-a]quinazoline-3-carboxamide] | 0.71 | 1.41 |  |  |  | 
COc1cccc(NC(=O)c2sc(=S)n3c2[nH]c(=O)c2cc(Br)ccc23)c1 [Compound 204, 7-bromo-N-(3-methoxyphenyl)-5-oxo-1-thioxo-4,5-dihydro-1H-thiazolo[3,4-a]quinazoline-3-carboxamide] | 6.00 | 3.35 | 6.6 µM |  |  | 
O=C(Nc1cccc(O)c1)c1sc(=S)n2c1[nH]c(=O)c1cc(Br)ccc12 [Compound 205, 7-bromo-N-(3-hydroxyphenyl)-5-oxo-1-thioxo-4,5-dihydro-1H-thiazolo[3,4-a]quinazoline-3-carboxamide] | 4.03 | 4.88 | 11.2 µM |  |  | 
O=C(Nc1cccc(F)c1)c1sc(=S)n2c1[nH]c(=O)c1cc(Br)ccc12 [Compound 206, 7-bromo-N-(3-fluorophenyl)-5-oxo-1-thioxo-4,5-dihydro-1H-thiazolo[3,4-a]quinazoline-3-carboxamide] | 12.55 | 2.85 | 1.14 µM | significant improvement |  | 
O=C(Nc1cccc(Cl)c1)c1sc(=S)n2c1[nH]c(=O)c1cc(Br)ccc12 [Compound 207, 7-bromo-N-(3-chlorophenyl)-5-oxo-1-thioxo-4,5-dihydro-1H-thiazolo[3,4-a]quinazoline-3-carboxamide] | 16.12 | 3.56 | 4.85 µM |  |  | 
O=C(Nc1cccc(OC(F)(F)F)c1)c1sc(=S)n2c1[nH]c(=O)c1cc(Br)ccc12 [Compound 209, 7-bromo-5-oxo-1-thioxo-N-(3-(trifluoromethoxy)phenyl)-4,5-dihydro-1H-thiazolo[3,4-a]quinazoline-3-carboxamide] | 14.78 | 4.37 | 3.82 µM |  |  | 
O=C(Nc1cc(C(F)(F)F)cc(C(F)(F)F)c1)c1sc(=S)n2c1[nH]c(=O)c1cc(Br)ccc12 [Compound 210, N-(3,5-bis(trifluoromethyl)phenyl)-7-bromo-5-oxo-1-thioxo-4,5-dihydro-1H-thiazolo[3,4-a]quinazoline-3-carboxamide] | 2.08 | 2.28 | 17.3 µM |  |  | 
FC(F)(F)c1cc(NC(=S)Nc2ccc(Br)cc2-c2nn[nH]n2)cc(C(F)(F)F)c1 [NS11021, reference compound] | 1.63 | 1.86 | 14.9 µM and 14.3 µM |  | significant activation effects | 
COC(=O)c1ccc2c(=O)[nH]c3c(C(=O)Nc4cccc(F)c4)sc(=S)n3c2c1 [TTQC-2, methyl 3-((3-fluorophenyl)carbamoyl)-5-oxo-1-thioxo-4,5-dihydro-1H-thiazolo[3,4-a]quinazoline-8-carboxylate] |  |  |  |  |  | 0.99
CCOC(=O)c1ccc(NC(=O)c2sc(=S)n3c2[nH]c(=O)c2ccc(Cl)cc23)cc1 [TTQC-3, ethyl 4-(8-chloro-5-oxo-1-thioxo-4,5-dihydro-1H-thiazolo[3,4-a]quinazoline-3-carboxamido)benzoate] |  |  |  |  |  | 0.96
CCc1ccccc1NC(=O)c1sc(=S)n2c1[nH]c(=O)c1ccc(Cl)cc12 [TTQC-4, 8-chloro-N-(2-ethylphenyl)-5-oxo-1-thioxo-4,5-dihydro-1H-thiazolo[3,4-a]quinazoline-3-carboxamide] |  |  |  |  |  | 0.95
COc1ccccc1NC(=O)c1sc(=S)n2c1[nH]c(=O)c1cc(Cl)ccc12 [TTQC-5, 7-chloro-N-(2-methoxyphenyl)-5-oxo-1-thioxo-4,5-dihydro-1H-thiazolo[3,4-a]quinazoline-3-carboxamide] |  |  |  |  |  | 0.90
CC(C)NC(=O)c1sc(=S)n2c1[nH]c(=O)c1cc(Br)ccc12 [TTQC-6, 7-bromo-N-isopropyl-5-oxo-1-thioxo-4,5-dihydro-1H-thiazolo[3,4-a]quinazoline-3-carboxamide] |  |  |  |  |  | 0.90
C=C(C)[C@H](CC=C(C)C)Cc1c(O)cc(OC)c2c1O[C@H](c1ccc(O)cc1O)CC2=O [kurarinone, reference compound] |  |  |  |  | significant activation effects | 
CC(=O)c1c(O)c(C)c(O)c(Cc2c(O)c3c(c(C(=O)/C=C/c4ccccc4)c2O)OC(C)(C)C=C3)c1O [rottlerin, reference compound] |  |  |  |  | significant activation effects | 
